By IC50 is commonly meant the point on the concentration scale where inhibition reaches its midpoint.

Counter-ions that a name gives are not always drawn. Like-named read-outs stand apart in the source and are kept apart here.

Among the data in patent publication US11492335B2, “Aryl or heteroaryl triazolone derivatives or salts thereof, or pharmaceutical compositions comprising the same” (YUHAN CORPORATION, priority 2018, dated 2022) are IC50 values, retold here.

Assay type in all cases: biochemical
The target of experiment [1] is T1, recombinant human DAO (diamine oxidase) (Homo sapiens, UniProt P19801).
T1 construct: purchased R&D systems
T1 sequence (P19801 20-751): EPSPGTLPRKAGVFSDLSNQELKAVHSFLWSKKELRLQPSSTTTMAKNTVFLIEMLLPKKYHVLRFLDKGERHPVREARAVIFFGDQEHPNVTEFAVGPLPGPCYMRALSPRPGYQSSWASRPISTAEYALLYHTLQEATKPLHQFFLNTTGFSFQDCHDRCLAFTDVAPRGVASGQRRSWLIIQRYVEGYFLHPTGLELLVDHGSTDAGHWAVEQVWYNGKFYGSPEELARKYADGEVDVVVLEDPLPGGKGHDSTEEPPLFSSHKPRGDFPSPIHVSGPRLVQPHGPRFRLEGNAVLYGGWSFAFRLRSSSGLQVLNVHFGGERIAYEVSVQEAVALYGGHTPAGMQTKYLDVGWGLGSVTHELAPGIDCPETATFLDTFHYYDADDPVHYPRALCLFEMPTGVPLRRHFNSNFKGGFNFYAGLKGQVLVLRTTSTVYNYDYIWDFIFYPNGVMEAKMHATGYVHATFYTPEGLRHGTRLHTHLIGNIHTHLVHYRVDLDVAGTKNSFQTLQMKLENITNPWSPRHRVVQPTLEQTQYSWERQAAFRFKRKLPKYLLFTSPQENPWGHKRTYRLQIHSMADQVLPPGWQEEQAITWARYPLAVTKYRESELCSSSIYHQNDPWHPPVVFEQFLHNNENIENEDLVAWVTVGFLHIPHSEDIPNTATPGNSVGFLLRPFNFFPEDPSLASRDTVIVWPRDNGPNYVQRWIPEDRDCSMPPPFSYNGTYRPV
The experiment can be described thus: Activity on recombinant human DAO, Amplex Red method, 1 mM putrescine substrate. The conditions noted are these: recombinant human DAO, read-out: Inhibitory Activity (IC50, nM) DAO. The essentials:
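Inhibition of recombinant human DAO (diamine oxidase, R&D systems) was assessed with the Amplex Red Hydrogen Peroxide Assay Kit. Hydrogen peroxide produced from 1 mM putrescine was detected through an HRP-coupled reaction that converts Amplex Red into fluorescent resorufin, read at 544 nm excitation and 590 nm emission. IC50 values came from four-parameter logistic fits in GraphPad Prism.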

Experiment [2] concerns the target T2, recombinant human MAO-A (monoamine oxidase-A) (Homo sapiens, UniProt P21397).
T2 construct: purchased Sigma-Aldrich
T2 sequence (P21397 1-527): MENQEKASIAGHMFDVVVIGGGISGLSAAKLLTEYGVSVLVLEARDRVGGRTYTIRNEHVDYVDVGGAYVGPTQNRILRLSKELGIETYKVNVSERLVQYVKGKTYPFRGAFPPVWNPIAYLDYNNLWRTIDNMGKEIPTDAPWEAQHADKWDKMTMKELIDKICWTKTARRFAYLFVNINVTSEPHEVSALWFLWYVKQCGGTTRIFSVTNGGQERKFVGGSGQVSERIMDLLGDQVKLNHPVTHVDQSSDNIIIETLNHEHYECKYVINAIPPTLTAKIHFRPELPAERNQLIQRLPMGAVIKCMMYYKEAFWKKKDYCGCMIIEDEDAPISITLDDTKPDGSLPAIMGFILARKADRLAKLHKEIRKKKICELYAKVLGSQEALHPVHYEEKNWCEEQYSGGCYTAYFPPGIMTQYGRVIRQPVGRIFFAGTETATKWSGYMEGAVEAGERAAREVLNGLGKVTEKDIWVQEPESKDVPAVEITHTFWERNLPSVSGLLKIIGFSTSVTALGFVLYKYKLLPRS
The experiment can be described thus: Activity on recombinant human MAO-A, Amplex Red method, 0.5 mM tyramine substrate. The following applies: read-out: Inhibitory Activity (IC50, nM) MAO-A. The essentials:
(§1)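 HRP-coupled Amplex Red H2O2 assay, 50 mM sodium phosphate pH 7.4; compounds (8-point 1:3 series, final DMSO <1%) preincubated with enzyme 30 min at 37° C, then 200 uM Amplex Red, 1 U/mL HRP and substrate (MAO-A 0.5 mM tyramine; MAO-B 1 mM benzylamine) added. Resorufin fluorescence (ex 544/em 590 nm) read over 1-2 h; IC50 from four-parameter logistic fit.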

Experiment [3] deals with T3, recombinant human MAO-B (monoamine oxidase-B) (Homo sapiens, UniProt P27338).
T3 construct: purchased Sigma-Aldrich
T3 sequence (P27338 1-520): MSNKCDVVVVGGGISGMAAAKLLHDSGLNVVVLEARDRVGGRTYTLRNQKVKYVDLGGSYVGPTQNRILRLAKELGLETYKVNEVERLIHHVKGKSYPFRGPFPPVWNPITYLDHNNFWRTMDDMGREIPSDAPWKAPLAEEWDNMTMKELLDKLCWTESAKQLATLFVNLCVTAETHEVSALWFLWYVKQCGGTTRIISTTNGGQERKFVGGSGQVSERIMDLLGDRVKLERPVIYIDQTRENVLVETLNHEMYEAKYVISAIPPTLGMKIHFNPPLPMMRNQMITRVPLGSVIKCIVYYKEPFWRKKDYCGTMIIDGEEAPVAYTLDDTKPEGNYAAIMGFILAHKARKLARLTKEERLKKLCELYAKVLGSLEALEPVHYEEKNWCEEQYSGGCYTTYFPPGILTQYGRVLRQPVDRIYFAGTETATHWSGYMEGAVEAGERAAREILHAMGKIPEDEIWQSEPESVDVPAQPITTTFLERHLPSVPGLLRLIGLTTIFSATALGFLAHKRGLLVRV
The experiment can be described thus: Activity on recombinant human MAO-B, Amplex Red method, 1 mM benzylamine substrate. The conditions noted are these: read-out: Inhibitory Activity (IC50, nM) MAO-B. The essentials:
as §1

The target in the next experiment is T4, recombinant human VAP-1 (Homo sapiens, UniProt Q16853).
T4 construct: purchased R&D systems
T4 sequence (Q16853 1-763): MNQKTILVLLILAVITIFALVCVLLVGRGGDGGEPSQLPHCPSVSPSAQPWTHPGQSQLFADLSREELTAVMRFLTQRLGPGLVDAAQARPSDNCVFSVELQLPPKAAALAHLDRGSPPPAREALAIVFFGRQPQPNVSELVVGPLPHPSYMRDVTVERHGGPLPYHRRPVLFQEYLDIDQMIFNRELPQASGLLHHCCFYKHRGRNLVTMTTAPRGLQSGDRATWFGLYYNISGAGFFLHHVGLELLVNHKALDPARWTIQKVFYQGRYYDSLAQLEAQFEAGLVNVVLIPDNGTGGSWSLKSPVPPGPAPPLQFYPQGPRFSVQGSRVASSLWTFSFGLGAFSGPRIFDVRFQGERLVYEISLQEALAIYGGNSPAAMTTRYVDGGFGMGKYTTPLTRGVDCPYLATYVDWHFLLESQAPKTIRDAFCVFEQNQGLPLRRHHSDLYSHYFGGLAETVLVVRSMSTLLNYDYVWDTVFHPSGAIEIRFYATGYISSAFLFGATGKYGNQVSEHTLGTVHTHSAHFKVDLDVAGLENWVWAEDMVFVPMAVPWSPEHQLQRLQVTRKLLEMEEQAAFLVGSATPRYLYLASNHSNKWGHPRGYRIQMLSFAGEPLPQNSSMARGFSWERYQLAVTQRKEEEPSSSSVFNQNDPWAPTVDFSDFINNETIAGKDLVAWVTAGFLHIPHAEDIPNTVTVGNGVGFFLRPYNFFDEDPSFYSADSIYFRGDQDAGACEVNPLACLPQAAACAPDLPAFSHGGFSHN
Briefly: Activity on recombinant human VAP-1, Amplex Red HRP-coupled hydrogen peroxide assay, benzylamine substrate. The following applies: recombinant human VAP-1, benzylamine substrate, read-out: Inhibitory Activity (IC50, nM) human VAP-1. The essentials:
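8-point 1:3 dilutions, final DMSO <1%; 30 min enzyme preincubation, 37 °C, pH 7.4 phosphate. Start: 1 mM benzylamine + 200 uM Amplex Red + 1 U/mL HRP. Read ex544/em590 over 1-2 h; % rate decrease vs DMSO control, 4-parameter logistic IC50.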

Setting [4] is: 1 mM putrescine, * = between 10 and 100 nM, ** = between 300 and 1000 nM.

For the molecule `Cc1cc(-n2cnn(C/C(=C\F)CN)c2=O)cnc1Br` [Example 26, 2-[(2Z)-2-(aminomethyl)-3-fluoroprop-2-en-1-yl]-4-(6-bromo-5-methylpyridin-3-yl)-2,4-dihydro-3H-1,2,4-triazol-3-one hydrochloride], the IC50 is 14 nM in experiment [1] (setting [4]), above 100000 nM in experiment [2] (0.5 mM tyramine), 9.4 nM in experiment [3] (1 mM benzylamine) and 5.3 nM on recombinant human VAP-1 (30 min preincubation at 37° C.).

For the molecule `NC/C(=C\F)Cn1ncn(-c2ccnc(-c3ccc(N4CCOCC4)cc3)c2)c1=O` [Example 207, 2-[(2E)-2-(aminomethyl)-3-fluoroprop-2-en-1-yl]-4-{2-[4-(morpholin-4-yl)phenyl]pyridin-4-yl}-2,4-dihydro-3H-1,2,4-triazol-3-one hydrochloride], the IC50 in experiment [1] (1 mM putrescine substrate) was below 10 nM; in experiment [2] (0.5 mM tyramine substrate) it was above 100000 nM; in experiment [3] (1 mM benzylamine substrate), 1400 nM; on recombinant human VAP-1, 0.45 nM.

For `NC/C(=C\F)Cn1ncn(-c2cnc(-c3ccc4nonc4c3)cn2)c1=O` [Example 222, 2-[(2E)-2-(aminomethyl)-3-fluoroprop-2-en-1-yl]-4-[5-(2,1,3-benzooxadiazol-5-yl)pyrazin-2-yl]-2,4-dihydro-3H-1,2,4-triazol-3-one], the IC50 in experiment [1] (1 mM putrescine substrate) was below 100 nM; in experiment [2] (0.5 mM tyramine substrate), 770 nM; in experiment [3] (1 mM benzylamine substrate), 22 nM; at recombinant human VAP-1 it was 0.94 nM.

As to `NC/C(=C\F)Cn1ncn(-c2ccc(Br)c(F)c2)c1=O` [Example 14, 2-[(2E)-2-(aminomethyl)-3-fluoroprop-2-en-1-yl]-4-(4-bromo-3-fluorophenyl)-2,4-dihydro-3H-1,2,4-triazol-3-one hydrochloride], the IC50 in experiment [1] (setting [4]) was determined as 38 nM; in experiment [2] (0.5 mM tyramine) it was 5200 nM; in experiment [3] (1 mM benzylamine), 35 nM; at recombinant human VAP-1 (30 min preincubation at 37° C.), 0.96 nM.

In the case of `NC/C(=C/F)Cn1ncn(-c2ccc(F)c(F)c2)c1=O` [Example 9, 2-[(2Z)-2-(aminomethyl)-3-fluoroprop-2-en-1-yl]-4-(3,4-difluorophenyl)-2,4-dihydro-3H-1,2,4-triazol-3-one], the IC50 in experiment [1] (setting [4]) amounted to 290 nM; in experiment [2] (0.5 mM tyramine), 2100 nM; in experiment [3] (1 mM benzylamine) it was 85 nM; at recombinant human VAP-1 (30 min preincubation at 37° C.), 5.4 nM.

On to `CS(=O)(=O)c1ccc(-c2ccc(-c3cccc(-n4cnn(C/C(=C/F)CN)c4=O)c3)cc2)cc1` [Example 66, 2-[(2E)-2-(aminomethyl)-3-fluoroprop-2-en-1-yl]-4-[4″-(methylsulfonyl)-1,1′:4′,1″-terphenyl-3-yl]-2,4-dihydro-3H-1,2,4-triazol-3-one hydrochloride], for which the IC50 in experiment [1] (setting [4]) was 3.9 nM; in experiment [2] (0.5 mM tyramine) it was above 100000 nM; in experiment [3] (1 mM benzylamine), above 10000 nM; at recombinant human VAP-1 (30 min preincubation at 37° C.), 0.66 nM.

`NC/C(=C\F)Cn1ncn(-c2ccc(-c3cccc(-c4nnc[nH]4)c3)cc2F)c1=O` [Example 44, 2-[(2E)-2-(aminomethyl)-3-fluoroprop-2-en-1-yl]-4-[3-fluoro-3′-(4H-1,2,4-triazol-3-yl)biphenyl-4-yl]-2,4-dihydro-3H-1,2,4-triazol-3-one]: the IC50 in experiment [1] (setting [4]) is below 100 nM; in experiment [2] (0.5 mM tyramine) it was 68300 nM; in experiment [3] (1 mM benzylamine) it was 65 nM; at recombinant human VAP-1 (30 min preincubation at 37° C.), 1.3 nM.

For `NC/C(=C\F)Cn1ncn(-c2cccc(-c3ccc(N4CCNCC4)cc3)n2)c1=O` [Example 184, 2-[(2E)-2-(aminomethyl)-3-fluoroprop-2-en-1-yl]-4-{6-[4-(piperazin-1-yl)phenyl]pyridin-2-yl}-2,4-dihydro-3H-1,2,4-triazol-3-one hydrochloride], the IC50 in experiment [1] (1 mM putrescine substrate) is 110 nM; in experiment [2] (0.5 mM tyramine substrate) it was 14000 nM; in experiment [3] (1 mM benzylamine substrate), above 10000 nM; on recombinant human VAP-1, 1.4 nM.

On to `NC/C(=C\F)Cn1ncn(-c2cccc(-c3ccc(C(=O)N4CCOCC4)cc3)n2)c1=O` [Example 186, 2-[(2E)-2-(aminomethyl)-3-fluoroprop-2-en-1-yl]-4-{6-[4-(morpholin-4-ylcarbonyl)phenyl]pyridin-2-yl}-2,4-dihydro-3H-1,2,4-triazol-3-one hydrochloride], for which the IC50 in experiment [1] (1 mM putrescine substrate) is below 10 nM; in experiment [2] (0.5 mM tyramine substrate), above 100000 nM; in experiment [3] (1 mM benzylamine substrate) it was above 10000 nM; on recombinant human VAP-1, 0.91 nM.

Turning to `CC(=O)Nc1cc(-c2ccnc(-n3cnn(C/C(=C/F)CN)c3=O)c2)ccn1` [Example 168, N-(2′-{1-[(2E)-2-(aminomethyl)-3-fluoroprop-2-en-1-yl]-5-oxo-1,5-dihydro-4H-1,2,4-triazol-4-yl}-4,4′-bipyridin-2-yl)acetamide], the IC50 was below 30 nM in experiment [1] (1 mM putrescine substrate), above 100000 nM in experiment [2] (0.5 mM tyramine substrate), 159 nM in experiment [3] (1 mM benzylamine substrate) and 0.39 nM on recombinant human VAP-1.
